Like-named read-outs stand apart in the source and are kept apart here.
Experiments:
[1] = test system: adenosine deaminase (ADA); assay: ADA-mediated deamination monitored by absorption and emission; format: biochemical
[2] = reported value, cited from earlier work
[3] = Abs: monitored by absorption, first order fit
[4] = Em: monitored by emission, first order fit

kapp [1, 3] | t1/2 [1, 3] | kapp [1, 4] | t1/2 [1, 4] | t1/2 ([1]; calculated from absorption spectroscopy data) | t1/2 ([1]; calculated from changes in emission spectra) | half-life ([1]; adenosine deaminase (ADA) enzyme reaction) | Structure (SMILES) | pKa ([2]; first pKa) | pKa ([2]; second pKa)
220 ± 10 × 10^−4 s^−1 | 0.32 ± 0.02 × 10^2 s | 220 ± 10 × 10^−4 s^−1 | 0.31 ± 0.02 × 10^2 s | 32 ± 2 s | 31 ± 2 s |  | Nc1ncnc2c([C@@H]3O[C@H](CO)[C@@H](O)[C@H]3O)snc12 [^tzA] |  | 
 |  |  |  |  |  |  | Nc1nc2c(ncn2[C@@H]2O[C@H](CO)[C@@H](O)[C@H]2O)c(=O)[nH]1 [G, guanosine] | 3.2–3.3 | 9.2–9.6
120 ± 10 × 10^−4 s^−1 | 0.57 ± 0.01 × 10^2 s |  |  |  |  | 57 s | Nc1ncnc2c1ncn2[C@@H]1O[C@H](CO)[C@@H](O)[C@H]1O [A, adenosine] | 3.6–4.2 | 
 |  |  |  |  |  |  | O=c1ccn([C@@H]2O[C@H](CO)[C@@H](O)[C@H]2O)c(=O)[nH]1 [uridine] | 9.20–9.25 | 

Reference: PMC8891053 (Chemistry (Weinheim an der Bergstrasse, Germany), 2022)
